Data reported in ChEMBL document CHEMBL3351363 (J Med Chem, 2014).

What was measured:
[1] = biological target: T1, Muscarinic acetylcholine receptor M1 (Homo sapiens, UniProt P11229); test: Displacement of [3H]NMS from human M1 receptor expressed in CHO cells by microplate scintillation counting based radioligand binding assay; format: cell-based
T1 sequence (P11229 whole entry): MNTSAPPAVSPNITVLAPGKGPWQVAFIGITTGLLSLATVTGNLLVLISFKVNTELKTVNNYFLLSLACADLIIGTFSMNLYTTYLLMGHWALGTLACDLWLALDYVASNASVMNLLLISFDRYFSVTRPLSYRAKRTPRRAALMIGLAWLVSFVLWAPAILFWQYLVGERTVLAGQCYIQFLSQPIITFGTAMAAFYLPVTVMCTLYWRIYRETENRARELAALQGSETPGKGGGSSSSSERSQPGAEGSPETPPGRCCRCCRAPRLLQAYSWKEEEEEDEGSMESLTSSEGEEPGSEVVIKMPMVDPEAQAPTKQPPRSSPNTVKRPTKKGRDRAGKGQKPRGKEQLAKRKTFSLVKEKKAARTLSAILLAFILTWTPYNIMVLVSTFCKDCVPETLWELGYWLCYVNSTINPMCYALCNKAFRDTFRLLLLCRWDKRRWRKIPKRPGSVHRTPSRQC

[2] = biological target: T2, Muscarinic acetylcholine receptor M2 (Homo sapiens, UniProt P08172); test: Displacement of [3H]NMS from human M2 receptor expressed in CHO cells by microplate scintillation counting based radioligand binding assay; format: cell-based
T2 sequence (P08172 whole entry): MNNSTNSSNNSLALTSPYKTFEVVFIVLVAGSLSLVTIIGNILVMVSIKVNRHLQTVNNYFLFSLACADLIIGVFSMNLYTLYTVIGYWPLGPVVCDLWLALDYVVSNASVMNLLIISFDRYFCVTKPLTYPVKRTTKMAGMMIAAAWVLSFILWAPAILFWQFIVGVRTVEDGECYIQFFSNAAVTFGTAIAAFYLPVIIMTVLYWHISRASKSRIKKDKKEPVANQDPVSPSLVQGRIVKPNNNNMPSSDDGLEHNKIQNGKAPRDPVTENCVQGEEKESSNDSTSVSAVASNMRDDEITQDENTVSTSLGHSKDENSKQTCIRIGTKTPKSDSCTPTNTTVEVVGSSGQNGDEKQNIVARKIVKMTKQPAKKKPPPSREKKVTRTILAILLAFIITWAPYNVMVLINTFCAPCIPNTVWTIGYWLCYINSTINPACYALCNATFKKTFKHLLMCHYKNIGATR

[3] = biological target: Muscarinic acetylcholine receptor M3 (Homo sapiens, UniProt P20309); test: Displacement of [3H]NMS from human M3 receptor expressed in CHO cells by microplate scintillation counting based radioligand binding assay; format: cell-based
[4] = biological target: T3, Muscarinic acetylcholine receptor M4 (Homo sapiens, UniProt P08173); test: Displacement of [3H]NMS from human M4 receptor expressed in CHO cells by microplate scintillation counting based radioligand binding assay; format: cell-based
T3 sequence (P08173 whole entry): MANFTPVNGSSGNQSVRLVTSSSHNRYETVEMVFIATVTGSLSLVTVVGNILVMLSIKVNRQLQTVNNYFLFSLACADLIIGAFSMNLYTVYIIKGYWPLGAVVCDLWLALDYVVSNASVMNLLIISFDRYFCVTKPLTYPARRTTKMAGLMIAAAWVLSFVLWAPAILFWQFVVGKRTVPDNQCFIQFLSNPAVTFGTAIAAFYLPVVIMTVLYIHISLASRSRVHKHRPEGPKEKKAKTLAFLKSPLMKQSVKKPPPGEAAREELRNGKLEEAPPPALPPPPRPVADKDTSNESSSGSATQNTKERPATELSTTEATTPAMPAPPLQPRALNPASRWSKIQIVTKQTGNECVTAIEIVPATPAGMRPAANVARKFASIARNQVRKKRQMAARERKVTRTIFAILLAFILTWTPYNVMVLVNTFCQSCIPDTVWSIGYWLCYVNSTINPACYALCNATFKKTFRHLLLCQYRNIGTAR

[5] = biological target: T4, Muscarinic acetylcholine receptor M5 (Homo sapiens, UniProt P08912); test: Displacement of [3H]NMS from human M5 receptor expressed in CHO cells by microplate scintillation counting based radioligand binding assay; format: cell-based
T4 sequence (P08912 whole entry): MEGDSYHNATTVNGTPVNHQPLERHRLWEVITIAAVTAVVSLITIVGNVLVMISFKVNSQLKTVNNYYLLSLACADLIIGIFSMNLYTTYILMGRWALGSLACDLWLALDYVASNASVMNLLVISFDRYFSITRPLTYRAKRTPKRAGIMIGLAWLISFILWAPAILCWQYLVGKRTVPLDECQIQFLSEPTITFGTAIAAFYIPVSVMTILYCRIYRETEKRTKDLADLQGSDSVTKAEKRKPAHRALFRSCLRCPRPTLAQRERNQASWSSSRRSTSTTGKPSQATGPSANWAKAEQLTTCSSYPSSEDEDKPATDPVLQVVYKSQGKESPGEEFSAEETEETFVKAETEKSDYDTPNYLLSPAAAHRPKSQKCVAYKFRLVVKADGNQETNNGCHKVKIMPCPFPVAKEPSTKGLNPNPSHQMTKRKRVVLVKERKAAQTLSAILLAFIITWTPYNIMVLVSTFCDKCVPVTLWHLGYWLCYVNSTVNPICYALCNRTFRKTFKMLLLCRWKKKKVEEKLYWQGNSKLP

[6] = biological target: T5, Muscarinic acetylcholine receptor M1 (Homo sapiens) (UniProt P11229); test: Agonist activity at human M1 receptor expressed in HEK293T cells by BRET based Gq protein engagement assay relative carbachol; format: cell-based; conditions: HEK-293T
T5 sequence (whole entry): T1 sequence (P11229 whole entry)

[7] = biological target: T1, Muscarinic acetylcholine receptor M1; format: cell-based, HEK-293T
[8] = biological target: T1, Muscarinic acetylcholine receptor M1; test: Agonist activity at human M1 receptor expressed in HEK293T cells by BRET based Gq protein activation assay; format: cell-based, HEK-293T
[9] = biological target: T5, Muscarinic acetylcholine receptor M1 (Homo sapiens); test: Agonist activity at human M1 receptor expressed in HEK293T cells by BRET based Gq protein activation assay relative to carbachol; format: cell-based; conditions: HEK-293T
[10] = biological target: T1, Muscarinic acetylcholine receptor M1; format: cell-based, HEK-293T; remark: listed apart in the source
[11] = biological target: T3, Muscarinic acetylcholine receptor M4; test: Agonist activity at human M4 receptor expressed in HEK293T cells by BRET based Gq protein engagement assay
[12] = biological target: T6, Muscarinic acetylcholine receptor M4 (Homo sapiens) (UniProt P08173); test: Agonist activity at human M4 receptor expressed in HEK293T cells by BRET based Gq protein engagement assay relative to carbachol; format: cell-based; conditions: HEK-293T
T6 sequence (whole entry): T3 sequence (P08173 whole entry)

[13] = biological target: T3, Muscarinic acetylcholine receptor M4; test: Antagonist activity at human M4 receptor expressed in HEK293T cells assessed as inhibition of carbachol-induced response by BRET based Gq protein engagement assay; format: cell-based, HEK-293T
[14] = biological target: T6, Muscarinic acetylcholine receptor M4 (Homo sapiens); test: Antagonist activity at human M4 receptor expressed in HEK293T cells assessed as inhibition of carbachol-induced response by BRET based Gq protein engagement assay relative to untreated control; format: cell-based; conditions: HEK-293T
[15] = biological target: T3, Muscarinic acetylcholine receptor M4; test: Agonist activity at human M4 receptor expressed in HEK293T cells by BRET based Gq protein activation assay
[16] = biological target: T3, Muscarinic acetylcholine receptor M4; test: Antagonist activity at human M4 receptor expressed in HEK293T cells assessed as inhibition of carbachol-induced response by beta-arrestin engagement assay; format: cell-based, HEK-293T
[17] = biological target: T6, Muscarinic acetylcholine receptor M4 (Homo sapiens); test: Antagonist activity at human M4 receptor expressed in HEK293T cells assessed as inhibition of carbachol-induced response by beta-arrestin engagement assay relative to untreated control; format: cell-based; conditions: HEK-293T
[18] = biological target: T1, Muscarinic acetylcholine receptor M1
[19] = biological target: T3, Muscarinic acetylcholine receptor M4
[20] = biological target: T6, Muscarinic acetylcholine receptor M4 (Homo sapiens); test: Agonist activity at human M4 receptor expressed in HEK293T cells by BRET based Gi protein activation assay relative to carbachol; conditions: HEK-293T
[21] = biological target: T6, Muscarinic acetylcholine receptor M4 (Homo sapiens); test: Antagonist activity at human M4 receptor expressed in HEK293T cells assessed as inhibition of carbachol-induced response by BRET based Gi protein activation assay relative to untreated control; conditions: HEK-293T
[22] = biological target: T5, Muscarinic acetylcholine receptor M1 (Homo sapiens); test: Agonist activity at human M1 receptor expressed in HEK293T cells by BRET based beta-arrestin engagement assay relative to carbachol; format: cell-based; conditions: HEK-293T
[23] = biological target: T6, Muscarinic acetylcholine receptor M4 (Homo sapiens); test: Agonist activity at human M4 receptor expressed in HEK293T cells by BRET based beta-arrestin engagement assay relative to carbachol; format: cell-based; conditions: HEK-293T
[24] = biological target: T1, Muscarinic acetylcholine receptor M1; test: Agonist activity at human M1 receptor expressed in HEK293T cells by BRET based Gq protein engagement assay
[25] = biological target: T1, Muscarinic acetylcholine receptor M1; test: Agonist activity at human M1 receptor expressed in HEK293T cells by BRET based beta-arrestin engagement assay

Sequence of Muscarinic acetylcholine receptor M3 (P20309 whole entry): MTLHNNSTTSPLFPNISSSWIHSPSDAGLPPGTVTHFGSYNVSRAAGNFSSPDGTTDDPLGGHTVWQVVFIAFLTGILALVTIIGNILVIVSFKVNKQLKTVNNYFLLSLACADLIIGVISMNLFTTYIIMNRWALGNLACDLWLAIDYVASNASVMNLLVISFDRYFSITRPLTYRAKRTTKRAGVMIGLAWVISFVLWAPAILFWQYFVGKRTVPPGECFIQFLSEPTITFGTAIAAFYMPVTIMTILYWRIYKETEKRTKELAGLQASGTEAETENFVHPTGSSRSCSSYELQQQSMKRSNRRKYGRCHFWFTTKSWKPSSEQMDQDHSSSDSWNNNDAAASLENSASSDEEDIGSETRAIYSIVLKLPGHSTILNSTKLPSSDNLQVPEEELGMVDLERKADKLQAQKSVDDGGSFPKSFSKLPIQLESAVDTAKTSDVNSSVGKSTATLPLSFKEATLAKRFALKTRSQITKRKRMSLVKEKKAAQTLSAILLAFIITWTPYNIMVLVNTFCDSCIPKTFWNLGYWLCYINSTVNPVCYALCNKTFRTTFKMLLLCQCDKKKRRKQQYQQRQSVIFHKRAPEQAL

| SMILES | Ki [1] | Ki [2] | Ki [3] | Ki [4] | Ki [5] | Emax [6] | IC50 [7] | EC50 [8] | Emax [9] | IC50 [10] | EC50 [11] | Emax [12] | IC50 [13] | Imax [14] | EC50 [15] | IC50 [16] | Imax [17] | IC50 [18] | IC50 [19] | Emax [20] | further results |
| --- | --- | --- | --- | --- | --- | --- | --- | --- | --- | --- | --- | --- | --- | --- | --- | --- | --- | --- | --- | --- | --- |
| CN1CCC=C(c2nsnc2OCCCCCC2CCN(CCCN3C(=O)CCc4ccccc43)CC2)C1 | 6.76 nM | 11 nM | 4.68 nM | 7.94 nM | 5.62 nM | < 0% | 5370 nM | 20.4 nM | 13% | 646 nM | 7080 nM | < 0% | 447 nM | < 100% | 30.9 nM | 355 nM | < 100% | 4270 nM | 631 nM | 27% | Imax [21]: < 100% |
| CCCCCCOc1nsnc1C1=CCCN(C)C1 [XANOMELINE] |  |  | 7.76 nM |  |  | 54% |  |  | 77% |  |  |  |  |  |  |  |  |  |  | 94% | Emax [22]: 95%; Emax [23]: 42% |
| CN1CCC=C(c2nsnc2OCCCCCCCC2CCN(CCCN3C(=O)CCc4ccccc43)CC2)C1 | 0.912 nM | 1.38 nM | 0.794 nM | 0.891 nM | 2.29 nM | 42% | 380 nM | 41.7 nM | 25% | 741 nM | 18.6 nM | 18% | 407 nM | 92% | 35.5 nM | 145 nM | 14% | 21.9 nM | 1860 nM | 40% | EC50 [24]: 166 nM; EC50 [25]: 174 nM; Emax [22]: 42%; Imax [21]: 60% |
